According to PubChem BioAssay AID1259411 (Chemical Carcinogenesis Research Information System (CCRIS), 2018):
Activity calls are given as the source filed them. How the calls were made is not given here.

System: rodent carcinogenicity bioassays, tumor incidence
Test: CCRIS carcinogenicity studies
Conditions: Dose: 0
Summary of the method: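 Archive of carcinogenicity, mutagenicity, tumor promotion and tumor inhibition results drawn from journals, NCI reports and other sources, expert-reviewed; covers 1985-2011 and is no longer updated.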

O=[N+]([O-])c1ccc2ccc3c4ccccc4cc4ccc1c2c43
carcinogen call (Species: MOUSE, Strain/Sex: B6C3F1/MALE, Route: INTRAPERITONEAL, 400 NMOL IN 35 µL DMSO ON DAYS 1 (1/7 TOTAL DOSE), 8 (2/7 TOTAL DOSE), AND 15 (4/7 TOTAL DOSE) AFTER BIRTH (STUDY DUR): inactive; negative
carcinogen call (Species: RAT, Strain/Sex: F344/MALE, Route: SUBCUTANEOUS, 500, 1000 UG SUSPENDED IN BEESWAX/TRICAPRYLIN (1:1) ONCE (STUDY DURATION: LIFETIME), 500, 1000 UG SUSPENDED IN BEESWAX/TRICAPRYLIN (1:1) ONCE (STUDY DURATION: LIFETIME)): inactive; negative

Oc1ccccc1-c1ccccc1
carcinogen call (Species: GUINEA PIG, Strain/Sex: HARTLEY/MALE, Route: ORAL, 2% IN DIET (STUDY DURATION: 48 WK)): inactive; negative
carcinogen call (Species: HAMSTER, Strain/Sex: SYRIAN/MALE, Route: ORAL, 2% IN DIET (STUDY DURATION: 48 WK)): inactive; negative
carcinogen call (Species: MOUSE, Strain/Sex: B6C3F1/FEMALE, Route: ORAL, 0.5, 1, 2% IN DIET FOR 96 WK (STUDY DURATION: 104 WK), 0.5, 1, 2% IN DIET FOR 96 WK (STUDY DURATION: 104 WK)): inactive; negative
carcinogen call (Species: MOUSE, Strain/Sex: B6C3F1/FEMALE, Route: ORAL, 0.5, 1, 2% IN THE DIET FOR 96 WK (STUDY DURATION: 104 WK), 0.5, 1, 2% IN THE DIET FOR 96 WK (STUDY DURATION: 104 WK)): inactive; negative
carcinogen call (Species: MOUSE, Strain/Sex: B6C3F1/MALE, Route: ORAL, 0.5, 1, 2% IN DIET FOR 96 WK (STUDY DURATION: 104 WK), 0.5, 1, 2% IN DIET FOR 96 WK (STUDY DURATION: 104 WK)): inactive; negative
carcinogen call (Species: MOUSE, Strain/Sex: B6C3F1/MALE, Route: ORAL, 0.5, 1, 2% IN THE DIET FOR 96 WK (STUDY DURATION: 104 WK), 0.5, 1, 2% IN THE DIET FOR 96 WK (STUDY DURATION: 104 WK)): inactive; negative
carcinogen call (Species: MOUSE, Strain/Sex: B6C3F1/MALE, Route: ORAL, 2% IN DIET (STUDY DURATION: 48 WK)): inactive; negative
carcinogen call (Species: MOUSE, Strain/Sex: CD-1/FEMALE, Route: DERMAL, 55.5 MG/ANIMAL IN 0.1 ML ACETONE 3 D/WK FOR 102 WK): inactive; negative
carcinogen call (Species: MOUSE, Strain/Sex: CD-1/MALE, Route: DERMAL, 55.5 MG/ANIMAL IN 0.1 ML ACETONE 3 D/WK FOR 102 WK): inactive; negative
carcinogen call (Species: RAT, Strain/Sex: F344/MALE, Route: ORAL, 0.125, 0.25, 0.5, 1.0, 2.0, 4.0% IN DIET FOR 91 WK, 0.125, 0.25, 0.5, 1.0, 2.0, 4.0% IN DIET FOR 91 WK, Tumor Site: Type of Lesion: KIDNEY: TRANSITIONAL CELL CARCINOMA, URINARY BLADDER: TRANSITIONAL CELL CARCINOMA): active; positive
carcinogen call (Species: RAT, Strain/Sex: F344/MALE, Route: ORAL, 0.625, 1.25, 2.5% IN PELLET DIET FOR STUDY DURATION (STUDY DURATION: 91 WK), 0.625, 1.25, 2.5% IN PELLET DIET FOR STUDY DURATION (STUDY DURATION: 91 WK), Tumor Site: Type of Lesion: BLADDER: TRANSITIONAL CELL PAPILLOMA, TRANSITIONAL CELL CARCINOMA): active; positive
carcinogen call (Species: RAT, Strain/Sex: F344/MALE, Route: ORAL, 2% IN DIET (STUDY DURATION: 48 WK)): inactive; negative
carcinogen call (Species: RAT, Strain/Sex: F344/MALE, Route: ORAL, 2% IN DIET FOR 104 WK (STUDY DURATION: 104 WK), Tumor Site: Type of Lesion: BLADDER: CARCINOMA): active; positive

CC(C)OS(C)(=O)=O
carcinogen call (Species: MOUSE, Strain/Sex: ICR/FEMALE, Route: SUBCUTANEOUS, 10 UMOL/MOUSE IN TRIOCTANOIN INTO LEFT FLANK, 1/WK FOR 139 D (STUDY DURATION: 139 D), Tumor Site: Type of Lesion: THYMUS GLAND: LYMPHOMA): active; positive

CCOC(OCC)C(=O)c1ccccc1
carcinogen call (Species: MOUSE, Strain/Sex: C3H/HEJ/MALE, Route: DERMAL, 11.3 MG AS A 50% DILUTION IN ACETONE 3/WK FOR LIFESPAN (STUDY DURATION: LIFESPAN)): inactive; negative
carcinogen call (Species: MOUSE, Strain/Sex: C3H/HEJ/MALE, Route: DERMAL, 25 MG UNDILUTED 3/WK FOR LIFESPAN (STUDY DURATION: LIFESPAN)): inactive; negative

N#[N+]c1ccccc1
carcinogen call (Species: MOUSE, Strain/Sex: SWISS/FEMALE, Route: GAVAGE, 100 MG/KG BW 1X/WK FOR 52 WK (STUDY DURATION: 140 WK), Tumor Site: Type of Lesion: LUNG: TUMOR): active; positive
carcinogen call (Species: MOUSE, Strain/Sex: SWISS/FEMALE, Route: SUBCUTANEOUS, 10 UG/G BW IN 0.01 ML OF 0.9% SALINE 1/WK FOR 26 WK (STUDY DURATION: 140WK), Tumor Site: Type of Lesion: SUBCUTANEOUS TISSUE: TUMOR): active; positive
carcinogen call (Species: MOUSE, Strain/Sex: SWISS/FEMALE, Route: SUBCUTANEOUS, 25 MG/KG BW 1X/WK FOR 10 WK (STUDY DURATION: 130 WK)): inactive; negative
carcinogen call (Species: MOUSE, Strain/Sex: SWISS/MALE, Route: GAVAGE, 100 MG/KG BW 1X/WK FOR 52 WK (STUDY DURATION: 130 WK), Tumor Site: Type of Lesion: LUNG: TUMOR): active; positive
carcinogen call (Species: MOUSE, Strain/Sex: SWISS/MALE, Route: SUBCUTANEOUS, 10 UG/G BW IN 0.01 ML OF 0.9% SALINE 1/WK FOR 26 WK (STUDY DURATION: 140 WK), Tumor Site: Type of Lesion: SUBCUTANEOUS TISSUE: TUMOR): active; positive
carcinogen call (Species: MOUSE, Strain/Sex: SWISS/MALE, Route: SUBCUTANEOUS, 25 MG/KG BW 1X/WK FOR 10 WK (STUDY DURATION: 120 WK)): inactive; negative

C1O[C@@H]1[C@H]1CO1
carcinogen call (Species: MOUSE, Strain/Sex: B6C3F1/FEMALE, Route: INHALATION, 2.5, 5.0 PPM 6 HR/D 5 D/WK FOR 6 WK (STUDY DURATION: 84 WK), 2.5, 5.0 PPM 6 HR/D 5 D/WK FOR 6 WK (STUDY DURATION: 84 WK), Tumor Site: Type of Lesion: HARDERIAN GLAND: TUMOR): active; positive
carcinogen call (Species: RAT, Strain/Sex: SPRAGUE-DAWLEY/FEMALE, Route: INHALATION, 2.5, 5.0 PPM 6 HR/D 5 D/WK FOR 6 WK (STUDY DURATION: 84 WK), 2.5, 5.0 PPM 6 HR/D 5 D/WK FOR 6 WK (STUDY DURATION: 84 WK), Tumor Site: Type of Lesion: NASAL MUCOSA: TUMOR): active; positive

O=NN1CCC(=O)CC1
carcinogen call (Species: RAT, Strain/Sex: F344/FEMALE, Route: ORAL, 80 ML OF SOLUTION OF 115 MG/L IN NEUTRAL DEIONIZED DRINKING WATER 5 D/WK FOR 30 WK (STUDY DURATION: 60 WK), Tumor Site: Type of Lesion: NASAL CAVITY: ESTHESIONEUROEPITHELIOMA, FORESTOMACH: TUMOR, ESOPHAGUS: TUMOR, TONGUE: TUMOR, LIVER: HEPATOCELLULAR CARCI, Tumor Site: Type of Lesion: NASAL CAVITY: ESTHESIONEUROEPITHELIOMA, FORESTOMACH: TUMOR, ESOPHAGUS: TUMOR, TONGUE: TUMOR, LIVER: HEPATOCELLULAR CARCI): active; positive

FC(F)=C(F)F
carcinogen call (Species: MOUSE, Strain/Sex: B6C3F1/FEMALE, Route: INHALATION, 312, 625, 1250 PPM 6 HR/D 5 D/WK FOR 95-96 WK (STUDY DURATION: 96 WK), 312, 625, 1250 PPM 6 HR/D 5 D/WK FOR 95-96 WK (STUDY DURATION: 96 WK), Tumor Site: Type of Lesion: LIVER: HEMANGIOMA, HEMANGIOSARCOMA, HEPATOCELLULAR CARCINOMA, HEMATOPOIETIC SYSTEM: HISTIOCYTIC SARCOMA): active; positive
carcinogen call (Species: MOUSE, Strain/Sex: B6C3F1/MALE, Route: INHALATION, 312, 625, 1250 PPM 6 HR/D 5 D/WK FOR 95-96 WK (STUDY DURATION: 96 WK), 312, 625, 1250 PPM 6 HR/D 5 D/WK FOR 95-96 WK (STUDY DURATION: 96 WK), Tumor Site: Type of Lesion: LIVER: HEMANGIOMA, HEMANGIOSARCOMA, HEPATOCELLULAR CARCINOMA, HEMATOPOIETIC SYSTEM: HISTIOCYTIC SARCOMA): active; positive
carcinogen call (Species: RAT, Strain/Sex: F344/FEMALE, Route: INHALATION, 312, 625, 1250 PPM 6 HR/D 5 D/WK FOR 104 WK (STUDY DURATION: 106 WK), 312, 625, 1250 PPM 6 HR/D 5 D/WK FOR 104 WK (STUDY DURATION: 106 WK), Tumor Site: Type of Lesion: KIDNEY(RENAL TUBULE): ADENOMA, ADENOMA OR CARCINOMA, LIVER: HEMANGIOSARCOMA, HEPATOCELLULAR ADENOMA, HEPATOCELLULAR CARC): active; positive
carcinogen call (Species: RAT, Strain/Sex: F344/MALE, Route: INHALATION, 156, 312, 625 PPM 6 HR/D 5 D/WK FOR 104 WK (STUDY DURATION: 106 WK), 156, 312, 625 PPM 6 HR/D 5 D/WK FOR 104 WK (STUDY DURATION: 106 WK), Tumor Site: Type of Lesion: KIDNEY(RENAL TUBULE): ADENOMA, LIVER: HEPATOCELLULAR CARCINOMA, HEPATOCELLULAR ADENOMA OR CARCINOMA): active; positive
